From patent US12435087B2, “Modulators of DCN-1 and methods of use thereof” (Cellarity, Inc., priority 2023, dated 2025) come the findings set out here.

Like-named read-outs stand apart in the source and are kept apart here.

The target in the assay is DCN1 (DCUND1) protein PONY domain (Homo sapiens (Human), UniProt Q96GG9). Put plainly: TR-FRET assay (binding to DCN-1, displacement of FAM-labeled probe). Summed up:
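Compounds read at 1, 5 and 24 h, 0.1% final DMSO, by TR-FRET between terbium-streptavidin on biotinylated DCN1 PONY domain (E. coli) and a FAM-tagged non-covalent inhibitor probe. Two setups used, 5 nM protein with 20 nM labelled probe, or 0.31 nM protein with 100 nM labelled plus 800 nM unlabelled probe; buffer had TritonX and 200 mM NaCl. % activity relative to high (with probe) and low (without probe) controls.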
A general note: TR-FRET usually uses a lanthanide donor and a delayed reading to cut background.

[1] abbreviates: 24 hr after treatment with compound, read-out: TR FRET IC50 24 hr.
Where [2] appears, read: TR FRET IC50 1 hr (nM), 1 hr after treatment with compound.
[3] abbreviates: read-out: TR FRET IC50 1 hr, 1 hr after treatment with compound.

Sequence of DCN1 (DCUND1) protein PONY domain (Q96GG9 60-248): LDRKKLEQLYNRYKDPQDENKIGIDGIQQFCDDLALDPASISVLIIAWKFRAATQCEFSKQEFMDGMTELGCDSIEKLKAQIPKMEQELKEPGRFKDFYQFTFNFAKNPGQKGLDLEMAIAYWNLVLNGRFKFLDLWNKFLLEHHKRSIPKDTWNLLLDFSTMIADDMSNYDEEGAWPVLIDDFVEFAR

One may read the IC50 as the concentration needed to halve the response being measured. Consider `CCN1C(=O)[C@H](NC(=O)c2cccc(C(F)(F)F)c2)[C@@H](c2cccc(CNC(=O)C3=CCN(C)C3)c2)c2c(C)nn(-c3ccccc3)c21` [Compound I-362, N-(3-((4S,5R)-7-ethyl-3-methyl-6-oxo-1-phenyl-5-(3-(trifluoromethyl)benzamido)-4,5,6,7-tetrahydro-1H-pyrazolo[3,4-b]pyridin-4-yl)benzyl)-1-methyl-2,5-dihydro-1H-pyrrole-3-carboxamide], for which the IC50 runs as follows: under setting [1], 1000 to 3000 nM; under setting [2], 1000 to 3000 nM.
`C=C(CN1CCN(C2COC2)CC1)C(=O)NCc1cccc([C@@H]2c3cnn(-c4ccccc4)c3N(CC)C(=O)[C@H]2NC(=O)c2nccc(C(F)(F)F)n2)c1` [Compound I-163]: the IC50 is, setting by setting: under setting [1], at most 200 nM; under setting [3], at most 200 nM.
With `C=C(CN1CCC1)C(=O)NCc1cccc([C@@H]2c3c(C)nn(-c4ccccc4)c3N(CC)C(=O)[C@H]2NC(=O)c2cccc(C(F)(F)F)c2)c1` [Compound I-303], the IC50 is at most 200 nM under setting [1] and at most 200 nM under setting [3].
With `C=C(CN1CCCC1)C(=O)NCc1cccc([C@@H]2c3cnn(-c4ccccc4)c3N(CC)C(=O)[C@H]2NC(=O)c2cccc(C(F)(F)F)c2)c1` [Compound I-264], the IC50 is, setting by setting: under setting [1], at most 200 nM; under setting [3], at most 200 nM.
Take `C=C(CO)C(=O)Nc1cccc([C@@H]2c3c(C)nn(-c4ccccc4)c3N(CC)C(=O)[C@H]2NC(=O)c2cccc(C(F)(F)F)c2)c1` (racemic) [Compound I-71]: the IC50 under setting [1] is 200 to 1000 nM and the concentration for half-maximal inhibition (IC50) under setting [2] lay within 1000 to 3000 nM.
For the molecule `C=C(CN1CCC(C)(O)C1)C(=O)NCc1cccc([C@@H]2c3cnn(-c4ccccc4)c3N(CC)C(=O)[C@H]2NC(=O)c2cccc(C(F)(F)F)c2)c1` (stereo partly drawn) [Compound I-10, N-((4R,5S)-7-ethyl-4-(3-((2-((3-hydroxy-3-methylpyrrolidin-1-yl)methyl)acrylamido)methyl)phenyl)-6-oxo-1-phenyl-4,5,6,7-tetrahydro-1H-pyrazolo[3,4-b]pyridin-5-yl)-3-(trifluoromethyl)benzamide], the IC50 runs as follows: under setting [1], at most 200 nM; under setting [3], at most 200 nM.
In the case of `CCN1C(=O)[C@H](NC(=O)c2cccc(C(F)(F)F)c2)[C@@H](c2cccc(CNC(=O)/C=C(\C)C(=O)OC)c2)c2cnn(-c3ccccc3)c21` [Compound I-116], the half-maximal inhibitory concentration (IC50) under setting [1] fell in the range of 1000 to 3000 nM and the IC50 under setting [2] fell in the range of 1000 to 3000 nM.
For `CCN1C(=O)[C@H](NC(=O)c2cccc(C(F)(F)F)c2)[C@@H](c2ccccc2-n2sccc2=O)c2cnn(-c3ccccc3)c21` (racemic) [Compound I-89, ˜{N}—[˜{rac}-(4˜{S},5˜{R})-7-ethyl-6-oxo-4-[2-(3-oxoisothiazol-2-yl)phenyl]-1-phenyl-4,5-dihydropyrazolo[3,4-b]pyridin-5-yl]-3-(trifluoromethyl)benzamide], the IC50 reads like this: under setting [1], 1000 to 3000 nM; under setting [2], 1000 to 3000 nM.
Turning to `C=C(CN(C)C1COC1)C(=O)N(C)Cc1cccc([C@@H]2c3cnn(-c4ccccc4)c3N(CC)C(=O)[C@H]2NC(=O)c2nccc(C(F)(F)F)n2)c1` [Compound I-254], under setting [2], the 50% inhibitory concentration (IC50) fell in the range of 1000 to 3000 nM.
`C=C(CN1CCOCC1)C(=O)N[C@@H](C)c1cccc([C@@H]2c3cnn(-c4ccccc4)c3N(CC)C(=O)[C@H]2NC(=O)c2nccc(C(F)(F)F)n2)c1` [Compound I-299]: the half-inhibitory concentration (IC50) is, setting by setting: under setting [1], 1000 to 3000 nM; under setting [2], 1000 to 3000 nM.
For the molecule `C=CC(=O)N(C)c1cccc([C@H]2c3cnn(-c4ccccc4)c3N(CC)C(=O)[C@@H]2NC(=O)c2cccc(C(F)(F)F)c2)c1` (racemic) [Compound I-74], the 50% inhibitory concentration (IC50) runs as follows: under setting [1], 1000 to 3000 nM; under setting [2], 1000 to 3000 nM.
Take `C=C(CN1CCOCC1)C(=O)NCc1cccc([C@@H]2c3cnn(-c4ccccc4)c3N(CC)C(=O)[C@H]2NC(=O)c2ccn(CC(F)(F)F)n2)c1` [Compound I-297]: the IC50 was at most 200 nM under setting [1] and 200 to 1000 nM under setting [2].
For the molecule `C=C(CN1CCOCC1)C(=O)NCc1cccc([C@@H]2c3cnn(-c4ccccc4)c3N(CC)C(=O)[C@H]2NC(=O)c2ccn(C(F)F)n2)c1` [Compound I-308], the half-maximal inhibitory concentration (IC50) is at most 200 nM under setting [1] and 200 to 1000 nM under setting [2].
`C/C=C(\CN(C)C1COC1)C(=O)NCc1cccc([C@@H]2c3cnn(-c4ccccc4)c3N(CC)C(=O)[C@H]2NC(=O)c2nccc(C(F)(F)F)n2)c1` [Compound I-322]: the IC50 runs as follows: under setting [1], at most 200 nM; under setting [2], 1000 to 3000 nM.
In the same order, the values of `C=C(C(=O)NCc1cccc([C@@H]2c3cnn(-c4ccccc4)c3N(CC)C(=O)[C@H]2NC(=O)c2ccn(CCF)n2)c1)C(C)N(C)C1COC1` (stereo partly shown) [Compound I-334] are at most 200 nM and 200 to 1000 nM.
`C/C=C(\CN1CC2(COC2)C1)C(=O)N(C)Cc1cccc([C@@H]2c3cnn(-c4ccccc4)c3N(CC)C(=O)[C@H]2NC(=O)c2nccc(C(F)(F)F)n2)c1` [Compound I-235]: the half-maximal inhibitory concentration (IC50) by setting is: under setting [1], 1000 to 3000 nM; under setting [2], 1000 to 3000 nM.
Turning to `CCN1C(=O)[C@@H](NC(=O)c2nccc(C(F)(F)F)n2)[C@H](c2cccc(NC(=O)/C=C/C(=O)OC(C)(C)C)c2)c2c(C)nn(-c3ccccc3)c21` (racemic) [Compound I-359, rac-tert-butyl (E)-4-((3-((4R,5S)-7-ethyl-3-methyl-6-oxo-1-phenyl-5-(4-(trifluoromethyl)pyrimidine-2-carboxamido)-4,5,6,7-tetrahydro-1H-pyrazolo[3,4-b]pyridin-4-yl)phenyl)amino)-4-oxobut-2-enoate], the concentration for half-maximal inhibition (IC50) was at most 200 nM under setting [1] and 1000 to 3000 nM under setting [2].
Turning to `C=C(C(=O)NCc1cccc([C@@H]2c3cnn(-c4ccccc4)c3N(CC)C(=O)[C@H]2NC(=O)c2nccc(C(F)(F)F)n2)c1)C(C)N1CCC12COC2` (stereo partly shown) [Compound I-256], the IC50 under setting [1] was at most 200 nM and the concentration for half-maximal inhibition (IC50) under setting [2] fell in the range of 200 to 1000 nM.
In the case of `C/C=C(\CN1CCOCC1)C(=O)NCc1cccc([C@@H]2c3cnn(-c4ccccc4)c3N(CC)C(=O)[C@H]2NC(=O)c2nccc(C(F)(F)F)n2)c1` [Compound I-363], the half-inhibitory concentration (IC50) under setting [1] was at most 200 nM and the IC50 under setting [2] was in the range of 200 to 1000 nM.
With `CCN1C(=O)[C@@H](NC(=O)c2cccc(C(F)(F)F)c2)[C@H](c2cccc(NC(=O)C3=CCCN(C)C3)c2)c2cnn(-c3ccccc3)c21` (racemic) [Compound I-58], the IC50 by setting is: under setting [1], at most 200 nM; under setting [2], 1000 to 3000 nM.
On to `CCN1C(=O)[C@H](NC(=O)c2cccc(C(F)(F)F)c2)[C@@H](c2cccc(NC(=O)C3=CCC3)c2)c2c(C)nn(-c3ccccc3)c21` [Compound I-94, N-((4S,5R)-4-(3-(cyclobut-1-ene-1-carboxamido)phenyl)-7-ethyl-3-methyl-6-oxo-1-phenyl-4,5,6,7-tetrahydro-1H-pyrazolo[3,4-b]pyridin-5-yl)-3-(trifluoromethyl)benzamide], for which the IC50 under setting [1] was in the range of 1000 to 3000 nM and the 50% inhibitory concentration (IC50) under setting [3] is 1000 to 3000 nM.
For `C=C(CN1CCOCC1)C(=O)Nc1cccc([C@@H]2c3c(C)nn(-c4ccccc4)c3N(CCO)C(=O)[C@@H]2NC(=O)c2cccc(C(F)(F)F)c2)c1` (racemic) [Compound I-55, rac-N-((4R,5R)-7-(2-hydroxyethyl)-3-methyl-4-(3-(2-(morpholinomethyl)acrylamido)phenyl)-6-oxo-1-phenyl-4,5,6,7-tetrahydro-1H-pyrazolo[3,4-b]pyridin-5-yl)-3-(trifluoromethyl)benzamide], the half-maximal inhibitory concentration (IC50) runs as follows: under setting [1], 1000 to 3000 nM; under setting [2], 1000 to 3000 nM.
On to `C=C(CN1C2CCC1COC2)C(=O)NCc1cccc([C@@H]2c3cnn(-c4ccccc4)c3N(CC)C(=O)[C@H]2NC(=O)c2cccc(C(F)(F)F)c2)c1` [Compound I-289], for which the IC50 was at most 200 nM under setting [1] and at most 200 nM under setting [3].
Consider `C/C=C(\CN1CCC1)C(=O)NCc1cccc([C@@H]2c3cnn(-c4ccccc4)c3N(CC)C(=O)[C@H]2NC(=O)c2nccc(C(F)(F)F)n2)c1` [Compound I-314], for which the IC50 was at most 200 nM under setting [1] and 200 to 1000 nM under setting [2].
Take `C=C(CN1C2COCC1C2)C(=O)NCc1cccc([C@@H]2c3cnn(-c4ccccc4)c3N(CC)C(=O)[C@H]2NC(=O)c2cccc(C(F)(F)F)c2)c1` [Compound I-8]: the IC50 under setting [1] was at most 200 nM and the IC50 under setting [3] was at most 200 nM.
Turning to `C=C(CN(C)C1COC1)C(=O)NCc1cccc([C@@H]2c3c(C)nn(-c4ccccc4)c3N(CC)C(=O)[C@H]2NC(=O)c2cccc(C(F)(F)F)c2)c1` [Compound I-312], the IC50 is, setting by setting: under setting [1], at most 200 nM; under setting [3], at most 200 nM.
Consider `C=C(CN1CCOCC1)C(=O)NCc1cccc([C@@H]2c3cnn(-c4ccccc4)c3N(CC)C(=O)[C@H]2NC(=O)c2ccn(CC)n2)c1` [Compound I-351], for which the IC50 was at most 200 nM under setting [1] and 200 to 1000 nM under setting [2].
Regarding `CCN1C(=O)[C@@H](NC(=O)c2cccc(C(F)(F)F)c2)[C@H](c2cccc(NC(=O)/C=C/CN(C)C)c2F)c2cnn(-c3ccccc3)c21` (racemic) [Compound I-56], the half-maximal inhibitory concentration (IC50) under setting [1] is at most 200 nM and the IC50 under setting [2] lay in the range of 200 to 1000 nM.
For `C=C(CN1CCOCC1)C(=O)NCc1cccc([C@H]2c3cnn(-c4ccccc4)c3N(CC)C(=O)[C@@H]2NC(=O)c2cccc(C(F)(F)F)c2)c1` [Compound I-93], the concentration for half-maximal inhibition (IC50) is, setting by setting: under setting [1], 1000 to 3000 nM; under setting [2], 1000 to 3000 nM.
In the case of `CCN1C(=O)[C@@H](NC(=O)c2nccc(C(F)(F)F)n2)[C@H](c2ccccc2/C=C/C#N)c2cnn(-c3ccccc3)c21` (racemic) [Compound I-259, rac-N-((4R,5S)-4-(2-((E)-2-cyanovinyl)phenyl)-7-ethyl-6-oxo-1-phenyl-4,5,6,7-tetrahydro-1H-pyrazolo[3,4-b]pyridin-5-yl)-4-(trifluoromethyl)pyrimidine-2-carboxamide], the IC50 lay in the range of 1000 to 3000 nM under setting [1] and 1000 to 3000 nM under setting [2].
`CCN1C(=O)[C@H](NC(=O)c2cccc(C(F)(F)F)c2)[C@@H](c2ccccc2NC(C)=O)c2cnn(-c3ccccc3)c21` (racemic) [Compound I-26, rac-N-((4R,5S)-4-(2-acetamidophenyl)-7-ethyl-6-oxo-1-phenyl-4,5,6,7-tetrahydro-1H-pyrazolo[3,4-b]pyridin-5-yl)-3-(trifluoromethyl)benzamide]: the concentration for half-maximal inhibition (IC50) by setting is: under setting [1], above 3000 nM; under setting [2], above 3000 nM.
